Measurements published in paper PMC8559926, “Design, synthesis and biological evaluation of N-oxide derivatives with potent in vivo antileishmanial activity” (PLoS ONE, 2021).
Several values for one entry are separate records, joined by “and”; a condition that tells them apart may be missing. Equal values may be shown once. Read-outs that look alike come from different tables or passages of the source.

Key:
[1] = Quantification of nitrite by the Griess reaction (NO release); conditions: compounds at 10^-4 M, 5 mM of L-Cys (1:50), 1 h, 37°C
Protocol: The levels of nitrite resulting from the oxidation of NO in the aqueous medium were quantified through the Griess reaction after incubation with an excess of L-cysteine (1:50) according to previously published methods. The experiments were performed in triplicate and repeated three times on different days. […] The results were expressed as a percentage of nitrite (% NO2^−; mol/mol). Statistical analysis was carried out using ANOVA followed by Tukey’s Multiple Comparison Test at a significance level of p < 0.05.
The ability of all synthesized compounds (4a-x) and (14a-g) to release NO was evaluated by indirect determination of NO2^− production. The compounds at 10^−4 M were incubated for 1 h at 37°C in the presence of L-cysteine (1:50) and the produced NO2^− was determined through Griess reaction (Table 1).

[2] = target: T1, recombinant Leishmania cysteine protease LmCPB2.8ΔCTE (CPB) (Leishmania mexicana, UniProt P36400); assay: Enzymatic inhibition of recombinant CPB (Z-FR-AMC substrate); type: biochemical
T1 construct: The ORF that codes for the Leishmania mexicana CPB, lacking the C terminal extension (CPB2.8ΔCTE); made in house; host or cells: Pichia pastoris X-33
Protocol: The concentration of the active recombinant CPB expressed in Pichia pastoris supernatant was determined by active site titration with N-(trans-Epoxysuccinyl)-L-leucine 4-guanidinobutylamide E-64 (CalBiochem) that was found 1 μM. The active enzyme represented about 80% of the total recombinant enzyme.
Compounds were dissolved in DMSO to a final concentration of 20 μM. The assays were performed in dark 96 well-plates, containing 200 μL of 100 mM sodium acetate buffer (pH 5.5), 200 mM NaCl, 0.01% Triton-X100, 2 nM enzyme, various concentrations of inhibitor, and 5 μM of the substrate Z-FR-AMC (Calbiochem). The final concentration of DMSO was 1% (v/v). The enzyme was pre-incubated at 30°C for 2 minutes before the inhibitor was added, waited 2 minutes and after this incubation, the reaction was started by the addition of the substrate, Z-FR-AMC. The fluorescence was monitored at 380 nm excitation and 460 nm emission filters for 2 minutes at 30°C in an Infinite 200 PRO microplate reader (Tecan, Männedorf, Switzerland). The residual activity was measured by the ratio between enzyme + substrate and enzyme + inhibitor + substrate. […] Results were expressed in mean ± standard deviation of two independent replicates using Bioestat Software.

[3] = tested on: L. infantum intracellular amastigotes; assay: Anti-amastigote activity in infected murine peritoneal macrophages; type: cell-based; conditions: Leishmania infantum, Peritoneal macrophage, 24 h, read-out: EC50 - Effective Concentration that kills 50% of L. infantum amastigote forms
Protocol: The antileishmanial activity against L. infantum intracellular amastigotes, according to the following methodology. […] Were used infected macrophages as negative control and amphotericin B as the positive control.
After incubation, cells were fixed with methanol and Giemsa stained. The effective concentration to 50% amastigotes death (EC) was obtained by counting 100 macrophages in duplicate, in two independent experiments. The values were obtained by non-linear regression on Bioestat® software, and results were expressed in mean ± standard deviation.

[4] = tested on: L. infantum; assay: In vivo parasite load (LDU index) in L. infantum-infected BALB/c mice; conditions: oral, twice a day for five days; for reduction of parasite burden in liver and spleen: 7.7 mg/kg/day
Protocol: To evaluate the in vivo antileishmanial efficacy of compound 4f, male BALB/c mice, 20 ± 4 g, 6 weeks-old (CEMIB-UNICAMP) were intraperitoneally inoculated with 100 μL (1x10^8 parasites) of infective promastigotes of L. infantum (MHOM/MA/67/ITMAP-263) at the stationary phase. After nine days post-infection, the animals were treated by oral gavage (100 μL per dose) twice daily for 5 days with a 12h interval between doses according to the dosages described below, and euthanized. […] Work solutions were daily prepared in PBS. Negative controls correspond to infected and non-treated mice. As a positive control, a group of mice received 7.7 mg/kg/day of miltefosine, and a group of uninfected and untreated mice (healthy animals) was used for the analysis. The compound and miltefosine were orally administered twice a day for five days. After treatment, the animals were euthanized and the treatment efficacy was assessed by measuring the parasite burden of the infected animals using the LDU index.
LDU index. After the euthanasia, mice´s liver and spleen were collected for parasite quantification. Tissues impression onto microscopy slides were made, followed by Giemsa-staining and examining under optical microscopy. The corresponding number of amastigotes per 1,000 nucleated cells/organ weight was expressed as LDU index according to Stauber (1958), Sousa-Batista (2018), and Kwofie (2019).

[5] = Toxicity for mice: plasma biochemical markers; type: in vivo, BALB/c mice; conditions: for plasma creatinine: any group; for plasma creatinine / plasma total bilirubin levels: end of treatment; for plasma levels of AST, ALP, ALT, and creatinine: treated vs healthy groups; for plasma total bilirubin levels: treated vs infected untreated mice
Protocol: Toxicity for mice assays. The blood was collected in heparinized tubes and immediately centrifuged at 700×g for 10 min at 25°C to obtain plasma. Plasma levels of aspartate (AST), and alanine (ALT) transferases, alkaline phosphatase (ALP), creatinine, urea, and total bilirubin were determined at the end of treatment using commercial kits (Labtest Diagnóstica S.A., Brazil). The assays were performed according to Velasquez et al. (2017) and the data are expressed as average ± SEM. The statistical differences between groups were evaluated using a one-way analysis of variance, followed by the Student-Newman-Keuls multiple comparison test using GraphPad Prism software. Differences were considered significant when P values were […].

[6] = target: T1, recombinant Leishmania cysteine protease LmCPB2.8ΔCTE (CPB); conditions: read-out: IC50 - Inhibition of CPB (rCPB2.8); prototype/reference compounds; cited from earlier work
[7] = tested on: L. infantum intracellular amastigotes; set-up: method as in PMID 24913171; conditions: prototype/reference compounds, cited from earlier work
[8] = tested on: murine peritoneal macrophages; set-up: method as in PMID 24913171; conditions: prototype/reference compounds; cited from earlier work
[9] = tested on: L. infantum; set-up: method as in PMID 28866421; conditions: L. infantum-infected hamsters, cited from earlier work

T1 sequence (P36400 126-341, stated change not applied): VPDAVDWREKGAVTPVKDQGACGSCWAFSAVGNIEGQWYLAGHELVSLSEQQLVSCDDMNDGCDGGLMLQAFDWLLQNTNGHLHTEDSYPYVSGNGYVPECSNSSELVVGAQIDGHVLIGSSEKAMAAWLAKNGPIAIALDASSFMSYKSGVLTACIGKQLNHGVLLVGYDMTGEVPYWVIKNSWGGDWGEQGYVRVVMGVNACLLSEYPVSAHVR

Structure (SMILES)	% NO2- (mol/mol) [1]	IC50 [2] [µM]	EC50 [3] [µM]	parasite reduction ([4]; 2.56 mg/kg/day) [%]	reduction of parasite burden in liver and spleen [4]	plasma creatinine [5]	plasma levels of AST, ALP, ALT, and creatinine [5]	plasma total bilirubin levels [5]	side effect (biochemical markers) ([5]; up to the highest dose 7.7 mg/kg/day)	melting point [°C]	IC50 [6] [µM]	SI - Selective Index (CC50/EC50) [7]	EC50 ([7]; read-out: EC50 L. infantum amastigote forms) [µM]	CC50 [8] [µM]	decrease of parasite load ([9]; 15 days, intraperitoneal) [%]	reduction of parasite load in the liver [9] [%]	reduction of parasite load in the spleen [9] [%]	toxic effects [9]
NC(=O)N/N=C/c1ccc(Oc2no[n+]([O-])c2-c2ccccc2)cc1 [Compound 4f, (E)-4-(4-((2-carbamoylhydrazono)methyl)phenoxy)-3-phenyl-1,2,5-oxadiazole 2-oxide]	9.1 ± 0.7 %	4.5 ± 0.1	3.6 ± 0.1	77	90% and ~ 90%	no alterations	similar	no significant alterations	without causing any evident side effect	–	–	–	–	–	–	–	–	–
NC(=O)c1c(COc2ccc(/C=N/NC(N)=S)cc2)no[n+]1[O-] [Compound 4o, (E)-4-((4-((2-carbamothioylhydrazono)methyl)phenoxy)methyl)-3-carbamoyl-1,2,5-oxadiazole 2-oxide]	11.8 ± 1.2 %	> 20	> 10	–	–	–	–	–	–	232 to 234	–	–	–	–	–	–	–	–
O=C(N/N=C/c1ccc(Oc2no[n+]([O-])c2S(=O)(=O)c2ccccc2)cc1)c1cccc(O)c1 [Lapdesf14e, (E)-4-(4-((2-(3-hydroxybenzoyl)hydrazono)methyl)phenoxy)-3-(phenylsulfonyl)-1,2,5-oxadiazole 2-oxide]	26% and 26.0 ± 1.6 %	–	–	–	–	–	–	–	–	–	3.1 ± 0.4	66.4	3.1 ± 0.1	208.3 ± 0.2	50	54.2	49.9	without toxic effects
CCCCCCCCCCCCCCCCOP(=O)([O-])OCC[N+](C)(C)C [miltefosine, reference compound]	–	–	–	–	~ 90%	no alterations	similar	no significant alterations	–	–	–	–	–	–	–	–	–	–
